Read-outs that look alike come from different tables or passages of the source.
Experiments:
[1] = IPBC release from painted surfaces immersed in water (14C, liquid scintillation); format: physicochemical; conditions: water-based paint; 0.1% IPBC in wet paint; microspheres with 10% and 25% loading; plates in 250 ml water
Procedure: Three different 10 g paint samples were prepared. […] A specific fraction of the IPBC was ^14C-labelled material. Wet paint contained in total 0.1% IPBC. Stirring the paint assured homogeneous dispersion of the added substance. […] The containers were placed on a mechanical shaker. […] The release of free IPBC is about three times faster than that from microspheres.

[2] = plates in 2000 ml water, 0.4% medetomidine in wet paint
Procedure: Four different 30 g paint samples were prepared. Two of the samples were based on biocide-free and water-based standard white exterior wall paint, while the two other samples were based on biocide-free and organic solvent-based standard white exterior wall paint. Medetomidine was added to each sample, either in free form or the form of microspheres. ^14C-labelled material was 2.3% of all medetomidine. Wet paint contained in total 0.4% medetomidine. Stirring the paint with an electrical mixer assured homogeneous dispersion of the added substance. For the release studies, approximately 1 g (dry state) of the paint systems was applied on poly(propylene) plates using a paint applicator. After drying and weighing, each plate was vertically positioned in a closed container containing 2000 ml water that covered the plate. The containers were placed on a mechanical shaker. At various times 1000 μl water was pipetted out from each system and transferred to 20 ml tubes.

[3] = test system: barnacles and other fouling organisms; conditions: 0.1% by weight medetomidine or equivalent in marine paint; six and ten months of submersion in the sea, Swedish west coast
Procedure: PMMA test panels 1 dm^2 was painted by brush with three different biocide free commercially available marine paints. 3 ml of paint were used for each layer and there were two layers applied on each panel. These panels were used as references. To the same paints in different cans were added 0.1% by weight of medetomidine or an equivalent amount of medetomidine encapsulated in microspheres. The paint mixtures were applied to the same kind of test panels as the reference paints. All panels were made in triplicates and mounted randomly on a frame for submersion into the sea on the Swedish west coast (Tjärnö Marine Biological Laboratory). After six months and ten months (June 2009 to December 2009 and in April 2010) of submersion they were inspected.

release of free medetomidine compared with that from microspheres ([2]; solvent-based paint)	release of free medetomidine compared with that from microspheres ([2]; water-based paint)	SMILES	release of free IPBC compared with that from microspheres [1]	barnacle / tubeworm attachment on painted panels [3]
		CCCCNC(=O)OCC#CI [free IPBC, 3-iodo-2-propynyl butylcarbamate]	about three	
ten	about two	Cc1cccc(C(C)c2cnc[nH]2)c1C (stereo not shown) [medetomidine, 4-[1-(2,3-dimethylphenyl)ethyl]-3H-imidazole]		no barnacles or tubeworms attached

From patent US20110274763A1, “Slow releasing microcapsules and microspheres containing an active substance” (priority 2009, published 2011)
